# Marks after values point to notes of the source that are not given here.
# Assays:
# [1] = system: plasma renin; experiment: Rat renin inhibition under in vivo conditions (chronic administration via mini-osmotic pumps); conditions: for RENIN (Relative Units) DAY 0: Day 0 tail vein blood sample; for RENIN (Relative Units) DAY 0 / RENIN (Relative Units) Day 29: male Wistar rats, N=8; for RENIN (Relative Units) Day 29: terminal plasma day 29 after 28 days s.c. mini-pump, 10 mg/kg/day molar equivalent doses
# Method: (§1) The effect of chronic administration of Example 51 and hydrochlorothiazide (HCT) on plasma aldosterone and renin levels was tested in male Wistar rats. Compounds were administered via mini-osmotic pumps implanted subcutaneously in the scapular area of the rats using asceptic techniques. Molar equivalent doses of HCT and Example 51 (10 mg/kg/day) in 50% DMSO/PEG300 were delivered for 28 days via Alzet mini-pumps and compared to vehicle treated animals. A 250 μl blood sample was obtained from tail vein cannulae for analysis of aldosterone and plasma renin levels (Day 0). Terminal plasma was collected on day 29 for analysis of aldosterone and plasma renin levels. Plasma renin and aldosterone were measured utilizing commercially available kits (Cayman Chemical; Ann Arbor, Mich. and Alpha Diagnostics; San Antonio, Tex., respectively).
# [2] = system: Male Wistar rats; experiment: Determination of the diuresis (urine volume over 6 hours after oral dosing); assay type: in vivo, rat
# Method in brief: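 Male Wistar rats (180-200 g) in metabolic cages, fasted 18 h, water withdrawn 90 min before dosing. Compounds in 0.5% Methocel given p.o. at 30 or 3 mg/kg; urine volume collected over 6 h. Mean ±SEM, n=6 or 7.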
# [3] = system: plasma aldosterone; experiment: Rat aldosterone inhibition under in vivo conditions (chronic administration via mini-osmotic pumps); conditions: for ALDOSTERONE (pg/ml) DAY 0: Day 0 tail vein blood sample; for ALDOSTERONE (pg/ml) DAY 0 / ALDOSTERONE (pg/ml) Day 29: male Wistar rats, N=8; for ALDOSTERONE (pg/ml) Day 29: terminal plasma day 29 after 28 days s.c. mini-pump, 10 mg/kg/day molar equivalent doses
# Method: as §1
# [4] = day 29, 10 mg/kg/day for 28 days, result in words
# [5] = p.o. 3 mg/kg in 0.5% Methocel, male Wistar rats, 6 hours, mean ± SEM, n=6 or 7
# [6] = p.o. 30 mg/kg in 0.5% Methocel, male Wistar rats, 6 hours, mean ± SEM, n=6 or 7
SMILES,melting point,"Urine collected in 6 hours (mL) (3 mg/kg) [2, 5]",also measured
"NS(=O)(=O)c1cc2c(cc1Cl)NCN(CCO[N+](=O)[O-])S2(=O)=O [Example 51, 2H-1,2,4-Benzothiadiazine-7-sulfonamide, 6-chloro-3,4-dihydro-2-[2-(nitrooxy)ethyl]-, 1,1-dioxide]",161 to 163 °C (dec.),8.0 ± 1.1,"RENIN (Relative Units) DAY 0 [1]: 6.1 ± 0.3 Relative Units; plasma renin measured on day 29 as compared to vehicle or HCT treated rats [1, 4]: significantly lowered; RENIN (Relative Units) Day 29 [1]: 9.5 ± 0.5^a,b Relative Units; ALDOSTERONE (pg/ml) DAY 0 [3]: 540.8 ± 38.9 pg/mL; plasma aldosterone measured on day 29 as compared to vehicle or HCT treated rats [3, 4]: significantly lowered; ALDOSTERONE (pg/ml) Day 29 [3]: 1326.6 ± 118.7^c pg/ml"
"CN(CCO[N+](=O)[O-])CC1Nc2cc(Cl)c(S(N)(=O)=O)cc2S(=O)(=O)N1 (stereo not shown) [Example 45, 2H-1,2,4-Benzothiadiazine-7-sulfonamide, 6-chloro-3,4-dihydro-3-[[methyl[2-(nitrooxy)ethyl]amino]methyl]-, 1,1-dioxide]",175 to 180 °C,4.8 ± 1.3,–
"CC(CO[N+](=O)[O-])(CO[N+](=O)[O-])C(=O)N1CCC2(CC1)Nc1cc(C(F)(F)F)c(S(N)(=O)=O)cc1S(=O)(=O)N2 [Example 16c, Spiro[2H-1,2,4-benzothiadiazine-3(4H), 4′-piperidine]-7-sulfonamide, 1′-[2-methyl-3-(nitrooxy)-2-[(nitrooxy)methyl]-1-oxopropyl]-6-(trifluoromethyl)-, 1,1-dioxide]",> 140 °C (dec.),–,"Urine collected in 6 hours (mL) (30 mg/kg) ([2]; rat, in vivo, po): 4.3 ± 0.3 mL"
"NS(=O)(=O)c1cc2c(cc1Cl)NC(CNC(=O)CN(CCO[N+](=O)[O-])CCO[N+](=O)[O-])NS2(=O)=O (stereo not shown) [Example 57c, Acetamide, N-[[7-(aminosulfonyl)-6-chloro-3,4-dihydro-1,1-dioxido-2H-1,2,4-benzothiadiazin-3-yl]methyl]-2-[bis[2-(nitrooxy)ethyl]amino]-]",118 °C (dec.),–,"Urine collected in 6 hours (mL) (3 mg/kg) ([2]; rat, in vivo, po): 3.6 ± 0.6 mL"
"CN(CC1Nc2cc(Cl)c(S(N)(=O)=O)cc2S(=O)(=O)N1)C(=O)c1cc(CO[N+](=O)[O-])cc(CO[N+](=O)[O-])c1 (stereo not shown) [Example 65d, (5-{[{[7-(Aminosulfonyl)-6-chloro-1,1-dioxido-3,4-dihydro-2H-1,2,4-benzothiadiazin-3-yl]methyl}(methyl)amino]carbonyl}-1,3-phenylene)bis(methylene)dinitrate]",137 °C (dec.),–,"Urine collected in 6 hours (mL) (3 mg/kg) ([2]; rat, in vivo, po): 4.6 ± 0.3 mL"
"NS(=O)(=O)c1cc2c(cc1Cl)NCN(CC(=O)NCCCO[N+](=O)[O-])S2(=O)=O [Example 34, 2H-1,2,4-Benzothiadiazine-2-acetamide, 7-(aminosulfonyl)-6-chloro-3,4-dihydro-N-[3-(nitrooxy)propyl]-, 1,1-dioxide]",138 to 141 °C,2.8 ± 0.3,–
"NS(=O)(=O)c1cc2c(cc1Cl)NC(CCC(CO[N+](=O)[O-])O[N+](=O)[O-])NS2(=O)=O (stereo not shown) [Example 6b, 2H-1,2,4-Benzothiadiazine-7-sulfonamide, 3-[3,4-bis(nitrooxy)butyl]-6-chloro-3,4-dihydro-, 1,1-dioxide]",153 to 155 °C,–,"Urine collected in 6 hours (mL) (30 mg/kg) ([2]; rat, in vivo, po): 6.8 ± 0.5 mL"
"CC(CO[N+](=O)[O-])(CO[N+](=O)[O-])C(=O)N1CCC2(CC1)Nc1cc(Cl)c(S(N)(=O)=O)cc1S(=O)(=O)N2 [Example 23, Spiro[2H-1,2,4-benzothiadiazine-3(4H), 4′-piperidine]-7-sulfonamide, 6-chloro-1′-[2-methyl-3-(nitrooxy)-2-[(nitrooxy)methyl]-1-oxopropyl]-, 1,1-dioxide]",142 to 145 °C,–,"Urine collected in 6 hours (mL) (30 mg/kg) ([2]; rat, in vivo, po): 1.7 ± 0.6 mL"
"NS(=O)(=O)c1cc2c(cc1C(F)(F)F)NC(c1cc(CO[N+](=O)[O-])cc(CO[N+](=O)[O-])c1)NS2(=O)=O (stereo not shown) [Example 55, 2H-1,2,4-Benzothiadiazine-7-sulfonamide, 3-[3,5-bis[(nitrooxy)methyl]phenyl]-3,4-dihydro-6-(trifluoromethyl)-, 1,1-dioxide]",> 113 °C (dec.),–,"Urine collected in 6 hours (mL) (3 mg/kg) ([2]; rat, in vivo, po): 3.3 ± 0.4 mL"
"NS(=O)(=O)c1cc2c(cc1Cl)NCN(Cc1cccc(CO[N+](=O)[O-])c1)S2(=O)=O [Example 33, 2H-1,2,4-Benzothiadiazine-7-sulfonamide, 6-chloro-3,4-dihydro-2-[[3-[(nitrooxy)methyl]phenyl]methyl]-, 1,1-dioxide]",136 to 139 °C (dec.),3.0 ± 0.4,–
"CC1(C)CC(CC2Nc3cc(Cl)c(S(N)(=O)=O)cc3S(=O)(=O)N2)CC(C)(C)N1O (stereo not shown) [Example 77, 2H-1,2,4-Benzothiadiazine-7-sulfonamide, 6-chloro-3,4-dihydro-3-[(1-hydroxy-2,2,6,6-tetramethyl-4-piperidinyl)methyl]-, 1,1-dioxide]",174 to 176 °C,–,"Urine collected in 6 hours (mL) (3 mg/kg) ([2]; p.o. 3 mg/kg in 0.5% Methocel, male Wistar rats, 6 hours, mean ± SEM, n=6 or 7, 3 mg/kg): 2.3 ± 0.4 mL"
"NS(=O)(=O)c1cc2c(cc1Cl)NCN(CCCCO)S2(=O)=O [Example 41, 2H-1,2,4-Benzothiadiazine-7-sulfonamide, 6-chloro-3,4-dihydro-2-(4-hydroxybutyl)-, 1,1-dioxide]",96 to 99 °C,5.5 ± 0.6,–
"NS(=O)(=O)c1cc2c(cc1C(F)(F)F)NC(CCCCCO[N+](=O)[O-])NS2(=O)=O (stereo not shown) [Example 2, 2H-1,2,4-Benzothiadiazine-7-sulfonamide, 3,4-dihydro-3-[5-(nitrooxy)pentyl]-6-(trifluoromethyl)-, 1,1-dioxide]",171 to 189 °C,–,"Urine collected in 6 hours (mL) (30 mg/kg) [2, 6]: 5.7 ± 0.7 mL"
"NS(=O)(=O)c1cc2c(cc1Cl)NCN(CCCO)S2(=O)=O [Example 59, 2H-1,2,4-Benzothiadiazine-7-sulfonamide, 6-chloro-3,4-dihydro-2-(3-hydroxypropyl)-, 1,1-dioxide]",160 °C,6.7 ± 0.6,–
"CN(CCO[N+](=O)[O-])C(=O)CN1CNc2cc(Cl)c(S(N)(=O)=O)cc2S1(=O)=O [Example 38, 2H-1,2,4-Benzothiadiazine-2-acetamide, 7-(aminosulfonyl)-6-chloro-3,4-dihydro-N-methyl-N-[2-(nitrooxy)ethyl]-, 1,1-dioxide]",160 to 165 °C,4.5 ± 0.6,–
"NS(=O)(=O)c1cc2c(cc1Cl)NCN(CCCCOc1cc(CO[N+](=O)[O-])cc(CO[N+](=O)[O-])c1)S2(=O)=O [Example 69b, 2H-1,2,4-Benzothiadiazine-7-sulfonamide, 2-[4-[3,5-bis[(nitrooxy)methyl]phenoxy]butyl]-6-chloro-3,4-dihydro-, 1,1-dioxide]",65 to 67 °C,–,"Urine collected in 6 hours (mL) (3 mg/kg) ([2]; rat, in vivo, po): 2.5 ± 0.5 mL"
"NS(=O)(=O)c1cc2c(cc1Cl)NCN(CCCOc1cc(CO[N+](=O)[O-])cc(CO[N+](=O)[O-])c1)S2(=O)=O [Example 70c, 2H-1,2,4-Benzothiadiazine-7-sulfonamide, 2-[3-[3,5-bis[(nitrooxy)methyl]phenoxy]propyl]-6-chloro-3,4-dihydro-, 1,1-dioxide]",70 to 72 °C,–,"Urine collected in 6 hours (mL) (3 mg/kg) ([2]; rat, in vivo, po): 3.3 ± 0.4 mL"
"NS(=O)(=O)c1cc2c(cc1Cl)NC(CCC(=O)NCCOCCO[N+](=O)[O-])=NS2(=O)=O [Example 13, 4H-1,2,4-Benzothiadiazine-3-propanamide, 7-(aminosulfonyl)-6-chloro-N-[2-[2-(nitrooxy)ethoxy]ethyl]-, 1,1-dioxide]",175 to 178 °C,–,"Urine collected in 6 hours (mL) (30 mg/kg) [2, 6]: 2.2 ± 0.5 mL"
"NS(=O)(=O)c1cc2c(cc1Cl)NCNS2(=O)=O [HCT, hydrochlorothiazide, reference compound]",–,–,RENIN (Relative Units) DAY 0 [1]: 5.0 ± 0.6 Relative Units; RENIN (Relative Units) Day 29 [1]: 24.6 ± 1.0 Relative Units; ALDOSTERONE (pg/ml) DAY 0 [3]: 411.5 ± 41.8 pg/mL; ALDOSTERONE (pg/ml) Day 29 [3]: 2081.0 ± 232.1 pg/mL

# Second part, led by results:
melting point,SMILES,"Urine collected in 6 hours (mL) (3 mg/kg) [2, 5]",also measured
165 °C (dec.),"NS(=O)(=O)c1cc2c(cc1C(F)(F)F)NC(CCCO[N+](=O)[O-])NS2(=O)=O (stereo not shown) [Example 3d, 2H-1,2,4-Benzothiadiazine-7-sulfonamide, 3,4-dihydro-3-[3-(nitrooxy)propyl]-6-(trifluoromethyl)-, 1,1-dioxide]",–,"Urine collected in 6 hours (mL) (30 mg/kg) [2, 6]: 5.3 ± 0.8 mL"
226 to 228 °C,"NS(=O)(=O)c1cc2c(cc1Cl)NCN(CCO)S2(=O)=O [Example 32b, 2H-1,2,4-Benzothiadiazine-7-sulfonamide, 6-chloro-3,4-dihydro-2-(2-hydroxyethyl)-, 1,1-dioxide]",5.1 ± 0.2,–
152 to 156 °C (dec.),"CC(C)(CO[N+](=O)[O-])C(=O)N1CCC2(CC1)Nc1cc(C(F)(F)F)c(S(N)(=O)=O)cc1S(=O)(=O)N2 [Example 19b, Spiro[2H-1,2,4-benzothiadiazine-3(4H), 4′-piperidine]-7-sulfonamide, 1′-[2,2-dimethyl-3-(nitrooxy)-1-oxopropyl]-6-(trifluoromethyl)-, 1,1-dioxide]",–,"Urine collected in 6 hours (mL) (30 mg/kg) [2, 6]: 2.5 ± 0.4 mL"

# Reference: patent US7595313B2, “Nitric oxide donating diuretic compounds, compositions and methods of use” (NicOx, S.A., priority 2005, dated 2009)
